The values that follow are results of earlier work, collected in article PMC2410273, “Pharmacokinetic behaviour of the chemoprotectants BNP7787 and mesna after an i.v. bolus injection in rats” (British Journal of Cancer, 2004).

Where two headings read alike, the source gives them in different places.

On the set-up of data set [1]: method as in Hausheer et al, 1998. The note with it: dogs, ref Hausheer et al, 1998; cited from earlier work.
On the set-up of data set [2]: method as in Hausheer et al, 1998. The settings on record: rats, ref Hausheer et al, 1998; cited from earlier work.
Data set [3] relates to cisplatin-induced nephrotoxicity. More on the design: method as in Hausheer et al, 1998. The note with it: rats, ref Hausheer et al, 1998, cited from earlier work.
The test system is the same in data set [4]. More on the design: method as in Hausheer et al, 1998. The note with it: dogs; plasma creatinine, BUN, renal histopathology; ref Hausheer et al, 1998; cited from earlier work.
Data set [5] relates to antitumour activity of cisplatin. More on the design: method as in Hausheer et al, 1998. The note with it: tumour-bearing rats; given preceding cisplatin; ref Hausheer et al, 1998; cited from earlier work.
The test system is the same in data set [6]. On the set-up: method as in Boven et al, 2002. The note with it: tumour-bearing nude mice; given preceding cisplatin; ref Boven et al, 2002; cited from earlier work.
On the set-up of data set [7]: method as in Verschraagen et al, in press. The settings on record: cancer patients, ref Verschraagen et al, in press, cited from earlier work.
For data set [8], the system named is cisplatin-induced toxicity. More on the design: method as in Boven et al, 2002. The settings on record: nude mice; in the presence of 1000 mg kg^−1 BNP7787; ref Boven et al, 2002; cited from earlier work.
In data set [9] the test system is intestinal and renal epithelial cells. On the set-up: method as in earlier work. The settings on record: isolated cells, via facilitated transport, ref Ormstad and Uehara, 1982, Ormstad et al, 1983, Brock et al, 1984, Ormstad and Ohno; cited from earlier work.
On the set-up of data set [10]: method as in Ormstad et al, 1983. The note with it: in vitro, ref Ormstad et al, 1983, cited from earlier work.

For `O=S(=O)([O-])CCSSCCS(=O)(=O)[O-].[Na+].[Na+]` [BNP7787, disodium 2,2′-dithio-bis-ethane sulphonate], the “nontoxic dose after i.v. administration” value in data set [1] is 2000 mg/kg; in [2], 4000 mg/kg. Further, the “cisplatin dose (mg kg^−1) tolerated when preceded by BNP7787” value in data set [3] (750 or 1500 mg kg^−1 BNP7787 i.v.) is recorded as “could be safely increased from 6 to 9”. The “protection against cisplatin-induced nephrotoxicity” value is “completely protected” in data set [3] (plasma creatinine, BUN, renal histopathology) and “completely protected” in data set [4]. Further, the “effect on antitumour activity of cisplatin” value in data set [5] and in data set [6] was “did not reduce the antitumour activity of cisplatin” each time. Moreover, the “pharmacokinetic interaction with intact cisplatin” value in data set [7] (BNP7787 18.4–41 g m^−2) is “no mutual pharmacokinetic interaction”. In addition, in data set [7] (phase I, BNP7787 preceding cisplatin), the relatively nontoxic dose is given as no more than 41 g m^−2. In addition, the “weight loss on cisplatin dose increase from 5 to 8 mg kg^−1” value in [8] is on record as “weight loss increased”. Further, in data set [9], the cellular uptake result is “preferentially taken up in intestinal and renal epithelial cells”. The “reduction of BNP7787 into mesna” value in data set [10] (cytosol fraction of the kidney cortex) is listed as “large reduction”; in [10] (plasma), “very limited”.
